For `CC(C)CC(C)c1ccccc1NC(=O)c1nn(C)nc1C(F)(F)F` (centres unmarked) [Compound 2.219, 2-methyl-5-trifluoromethyl-2H-1,2,3-triazole-4-carboxylic acid [2-(1,3-dimethyl-butyl)-phenyl]-amide], the melting point was 94.6 to 95.4 °C.
Compound `Cn1nc(C(=O)Nc2cc(Cl)ccc2-c2ccccc2)c(C(F)F)n1` [Compound 3.017, 5-difluoromethyl-2-methyl-2H-1,2,3-triazole-4-carboxylic acid (4-chloro-biphenyl-2-yl)-amide] has a melting point of 155 to 156 °C.
